Paper PMC11951083, “Highly Specific Miniaturized Fluorescent Monoacylglycerol Lipase Probes Enable Translational Research” (Journal of the American Chemical Society, 2025)

Tests used:
GSK3beta (h) = GSK3beta (h) (Homo sapiens, UniProt P49841); assay: GSK3beta (h); settings: read-out: Inhibition GSK3beta (h)
HIV-1 protease = assay: HIV-1 protease; settings: 10 µM
CDK2 (h) (cycA) = CDK2 (h) (cycA) (Homo sapiens, UniProt P24941); assay: CDK2 (h) (cycA); settings: read-out: Inhibition CDK2 (h) (cycA)
D2S (h) = D2S (h) (Homo sapiens, UniProt P14416); assay: D2S (h) (agonist radioligand); settings: read-out: Inhibition D2S (h) (agonist radioligand)
D2S (h), sequence (P14416 1-414 isoform P14416-2): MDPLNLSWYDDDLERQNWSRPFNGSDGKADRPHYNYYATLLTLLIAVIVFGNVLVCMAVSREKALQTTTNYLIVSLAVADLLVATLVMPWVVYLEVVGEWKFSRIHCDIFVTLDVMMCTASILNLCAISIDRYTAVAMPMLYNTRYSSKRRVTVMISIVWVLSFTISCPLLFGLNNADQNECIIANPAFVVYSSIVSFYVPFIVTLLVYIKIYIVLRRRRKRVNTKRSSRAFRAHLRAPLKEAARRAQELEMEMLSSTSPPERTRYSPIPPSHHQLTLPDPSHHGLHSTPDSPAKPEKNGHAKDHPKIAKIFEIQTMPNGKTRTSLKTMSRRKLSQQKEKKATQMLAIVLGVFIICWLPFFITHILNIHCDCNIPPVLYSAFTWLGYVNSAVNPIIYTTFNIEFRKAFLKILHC

CB1 (h) = CB1 (h) (Homo sapiens, UniProt P21554); assay: CB1 (h) (agonist radioligand); settings: read-out: Inhibition CB1 (h) (agonist radioligand)
CB1 (h), sequence (P21554 whole entry): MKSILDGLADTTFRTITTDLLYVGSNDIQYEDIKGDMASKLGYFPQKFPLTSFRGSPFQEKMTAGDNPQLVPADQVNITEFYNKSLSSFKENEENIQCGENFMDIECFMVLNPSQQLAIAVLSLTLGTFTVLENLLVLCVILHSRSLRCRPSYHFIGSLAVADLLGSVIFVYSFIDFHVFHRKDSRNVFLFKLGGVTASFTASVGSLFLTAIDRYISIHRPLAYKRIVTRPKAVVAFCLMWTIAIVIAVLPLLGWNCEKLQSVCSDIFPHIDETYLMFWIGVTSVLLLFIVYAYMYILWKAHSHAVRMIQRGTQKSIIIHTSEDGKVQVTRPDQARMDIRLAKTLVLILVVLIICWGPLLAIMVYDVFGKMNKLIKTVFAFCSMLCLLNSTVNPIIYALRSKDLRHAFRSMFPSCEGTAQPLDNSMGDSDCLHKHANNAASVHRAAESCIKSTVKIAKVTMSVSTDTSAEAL

H1 (h) = H1 (h) (Homo sapiens, UniProt P35367); assay: H1 (h) (antagonist radioligand); settings: read-out: Inhibition H1 (h) (antagonist radioligand)
H1 (h), sequence (P35367 whole entry): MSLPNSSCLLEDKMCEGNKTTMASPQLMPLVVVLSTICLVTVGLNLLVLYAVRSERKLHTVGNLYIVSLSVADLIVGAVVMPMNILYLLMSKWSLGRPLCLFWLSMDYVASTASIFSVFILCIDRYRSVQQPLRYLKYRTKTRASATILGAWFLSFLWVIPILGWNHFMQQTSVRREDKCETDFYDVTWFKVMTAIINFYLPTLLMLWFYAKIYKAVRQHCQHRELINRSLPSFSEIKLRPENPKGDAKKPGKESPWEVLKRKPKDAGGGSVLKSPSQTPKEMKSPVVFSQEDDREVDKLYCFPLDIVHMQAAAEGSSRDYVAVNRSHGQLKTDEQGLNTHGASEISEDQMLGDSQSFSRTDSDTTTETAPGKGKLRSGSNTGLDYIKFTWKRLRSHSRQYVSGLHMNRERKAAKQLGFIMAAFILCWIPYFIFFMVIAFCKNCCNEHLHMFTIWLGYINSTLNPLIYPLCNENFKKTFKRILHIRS

AT1 (h) = biological target: T1, AT1 (h) (Homo sapiens, UniProt P30556); assay: AT1 (h) (antagonist radioligand); settings: read-out: Inhibition AT1 (h) (antagonist radioligand)
T1 sequence (P30556 1-359): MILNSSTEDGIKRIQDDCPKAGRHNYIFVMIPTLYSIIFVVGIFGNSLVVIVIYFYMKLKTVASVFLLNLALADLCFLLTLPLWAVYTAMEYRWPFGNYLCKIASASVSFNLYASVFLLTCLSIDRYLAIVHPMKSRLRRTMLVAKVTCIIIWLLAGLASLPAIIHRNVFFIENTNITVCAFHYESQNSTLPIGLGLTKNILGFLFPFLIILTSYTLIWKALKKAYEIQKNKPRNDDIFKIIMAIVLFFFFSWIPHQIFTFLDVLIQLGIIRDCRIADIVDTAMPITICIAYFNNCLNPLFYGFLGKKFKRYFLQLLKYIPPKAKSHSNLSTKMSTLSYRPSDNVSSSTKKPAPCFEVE

5-HT2A (h) = 5-HT2A (h) (Homo sapiens, UniProt P28223); assay: 5-HT2A (h) (agonist radioligand); settings: read-out: Inhibition 5-HT2A (h) (agonist radioligand)
5-HT2A (h), sequence (P28223 whole entry): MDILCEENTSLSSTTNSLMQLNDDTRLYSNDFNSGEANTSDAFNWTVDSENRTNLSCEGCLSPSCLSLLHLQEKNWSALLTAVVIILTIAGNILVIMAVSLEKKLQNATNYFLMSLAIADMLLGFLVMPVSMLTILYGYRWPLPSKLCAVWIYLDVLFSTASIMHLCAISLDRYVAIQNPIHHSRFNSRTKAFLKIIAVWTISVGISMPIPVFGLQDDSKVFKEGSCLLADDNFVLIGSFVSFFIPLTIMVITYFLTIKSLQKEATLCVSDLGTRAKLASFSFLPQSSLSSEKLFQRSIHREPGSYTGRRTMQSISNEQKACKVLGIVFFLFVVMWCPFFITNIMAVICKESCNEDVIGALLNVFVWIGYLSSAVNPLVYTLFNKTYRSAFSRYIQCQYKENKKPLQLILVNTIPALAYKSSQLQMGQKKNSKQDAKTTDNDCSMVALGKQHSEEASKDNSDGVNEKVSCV

5-HT2B (h) = 5-HT2B (h) (Homo sapiens, UniProt P41595); assay: 5-HT2B (h) (agonist radioligand); settings: read-out: Inhibition 5-HT2B (h) (agonist radioligand)
5-HT2B (h), sequence (P41595 whole entry): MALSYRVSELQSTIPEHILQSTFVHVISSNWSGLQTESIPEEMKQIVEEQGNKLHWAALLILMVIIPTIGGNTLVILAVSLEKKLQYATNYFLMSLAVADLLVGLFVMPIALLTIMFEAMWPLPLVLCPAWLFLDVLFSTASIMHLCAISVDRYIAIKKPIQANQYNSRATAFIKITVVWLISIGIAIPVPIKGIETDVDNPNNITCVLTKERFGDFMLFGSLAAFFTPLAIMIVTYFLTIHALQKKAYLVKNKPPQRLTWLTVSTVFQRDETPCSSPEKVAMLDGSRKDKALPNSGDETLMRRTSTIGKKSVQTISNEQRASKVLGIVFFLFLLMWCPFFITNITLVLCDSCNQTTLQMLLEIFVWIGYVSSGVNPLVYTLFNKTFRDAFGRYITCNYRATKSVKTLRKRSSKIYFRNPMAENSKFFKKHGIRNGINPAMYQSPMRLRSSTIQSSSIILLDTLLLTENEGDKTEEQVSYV

5-HT3 (h) = biological target: T2, 5-HT3 (h) (Homo sapiens, UniProt P46098); assay: 5-HT3 (h) (antagonist radioligand); settings: read-out: Inhibition 5-HT3 (h) (antagonist radioligand)
T2 sequence (P46098 24-478): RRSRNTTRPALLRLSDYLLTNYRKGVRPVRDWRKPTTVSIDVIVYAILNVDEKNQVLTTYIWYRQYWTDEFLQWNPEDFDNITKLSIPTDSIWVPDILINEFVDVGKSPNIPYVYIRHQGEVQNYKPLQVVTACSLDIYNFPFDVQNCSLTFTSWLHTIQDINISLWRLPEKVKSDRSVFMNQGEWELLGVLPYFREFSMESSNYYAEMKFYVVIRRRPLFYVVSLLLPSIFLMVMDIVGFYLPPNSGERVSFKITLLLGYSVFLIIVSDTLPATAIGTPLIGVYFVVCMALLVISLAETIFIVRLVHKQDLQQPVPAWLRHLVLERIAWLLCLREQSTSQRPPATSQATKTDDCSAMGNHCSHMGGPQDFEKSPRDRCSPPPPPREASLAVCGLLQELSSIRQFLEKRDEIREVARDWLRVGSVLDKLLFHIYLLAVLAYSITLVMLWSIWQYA

BZD (central) = BZD (central) (agonist radioligand); settings: 10 µM
CCK1 (CCKA) (h) = biological target: T3, CCK1 (CCKA) (h) (Homo sapiens, UniProt P32238); assay: CCK1 (CCKA) (h) (agonist radioligand); settings: read-out: Inhibition CCK1 (CCKA) (h) (agonist radioligand)
T3 sequence (P32238 1-428): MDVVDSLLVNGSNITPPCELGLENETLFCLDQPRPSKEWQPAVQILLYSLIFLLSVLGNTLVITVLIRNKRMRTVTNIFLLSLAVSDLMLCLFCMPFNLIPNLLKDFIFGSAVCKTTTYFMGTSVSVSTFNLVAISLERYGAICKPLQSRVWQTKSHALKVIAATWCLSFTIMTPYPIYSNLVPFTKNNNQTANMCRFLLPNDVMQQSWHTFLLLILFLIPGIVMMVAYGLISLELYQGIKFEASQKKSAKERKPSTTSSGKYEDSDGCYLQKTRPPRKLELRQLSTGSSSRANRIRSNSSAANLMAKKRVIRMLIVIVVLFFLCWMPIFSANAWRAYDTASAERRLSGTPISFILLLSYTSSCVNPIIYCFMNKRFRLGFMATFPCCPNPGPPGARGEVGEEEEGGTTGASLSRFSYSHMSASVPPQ

kappa (h) (KOP) = kappa (h) (KOP) (Homo sapiens, UniProt P41145); assay: kappa (h) (KOP) (agonist radioligand); settings: read-out: Inhibition kappa (h) (KOP) (agonist radioligand)
kappa (h) (KOP), sequence (P41145 whole entry): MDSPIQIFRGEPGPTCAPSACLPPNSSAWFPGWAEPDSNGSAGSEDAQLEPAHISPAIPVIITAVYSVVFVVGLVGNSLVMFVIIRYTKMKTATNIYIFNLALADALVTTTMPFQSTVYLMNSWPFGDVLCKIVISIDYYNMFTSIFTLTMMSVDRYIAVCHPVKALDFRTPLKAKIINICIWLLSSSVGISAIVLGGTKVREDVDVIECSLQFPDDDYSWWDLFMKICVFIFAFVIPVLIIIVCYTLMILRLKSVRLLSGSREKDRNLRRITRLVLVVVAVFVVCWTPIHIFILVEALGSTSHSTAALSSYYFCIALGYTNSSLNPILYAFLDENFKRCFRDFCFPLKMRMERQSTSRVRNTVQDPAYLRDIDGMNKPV

N muscle-type (h) = N muscle-type (h) (antagonist radioligand); settings: 10 µM
MMP-9 (h) = MMP-9 (h) (Homo sapiens, UniProt P14780); assay: MMP-9 (h); settings: read-out: Inhibition MMP-9 (h)
MMP-9 (h), sequence (P14780 94-707): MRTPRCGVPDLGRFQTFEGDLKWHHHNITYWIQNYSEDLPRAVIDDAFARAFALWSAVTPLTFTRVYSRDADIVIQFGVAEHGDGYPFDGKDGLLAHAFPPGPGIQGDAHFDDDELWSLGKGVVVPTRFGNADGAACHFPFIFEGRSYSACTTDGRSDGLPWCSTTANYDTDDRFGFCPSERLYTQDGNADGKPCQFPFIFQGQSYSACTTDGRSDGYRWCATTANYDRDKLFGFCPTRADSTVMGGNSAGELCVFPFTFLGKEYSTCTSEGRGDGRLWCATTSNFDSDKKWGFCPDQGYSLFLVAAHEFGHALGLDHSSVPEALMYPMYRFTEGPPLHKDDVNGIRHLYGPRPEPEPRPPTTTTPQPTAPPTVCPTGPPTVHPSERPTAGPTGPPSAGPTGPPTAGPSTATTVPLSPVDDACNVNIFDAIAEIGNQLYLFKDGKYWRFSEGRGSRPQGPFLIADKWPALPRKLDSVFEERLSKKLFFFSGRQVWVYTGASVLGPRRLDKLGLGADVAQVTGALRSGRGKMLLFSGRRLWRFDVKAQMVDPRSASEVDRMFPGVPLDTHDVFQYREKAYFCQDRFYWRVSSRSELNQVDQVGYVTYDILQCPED

GSK3beta (h), sequence (P49841 whole entry): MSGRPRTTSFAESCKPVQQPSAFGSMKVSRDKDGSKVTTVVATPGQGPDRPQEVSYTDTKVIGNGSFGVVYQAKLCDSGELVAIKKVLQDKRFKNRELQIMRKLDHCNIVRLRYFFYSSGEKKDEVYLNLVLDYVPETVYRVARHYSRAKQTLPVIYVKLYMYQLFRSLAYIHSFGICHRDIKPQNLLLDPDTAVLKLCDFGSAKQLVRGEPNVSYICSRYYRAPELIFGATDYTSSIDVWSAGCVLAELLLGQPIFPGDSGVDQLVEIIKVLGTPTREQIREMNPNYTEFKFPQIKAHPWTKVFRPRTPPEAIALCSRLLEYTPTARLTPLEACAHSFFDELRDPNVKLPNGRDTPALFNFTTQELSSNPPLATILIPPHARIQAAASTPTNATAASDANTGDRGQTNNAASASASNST

O=C(O[C@H](CO)C(F)(F)F)N1CC2(CC(CC3=C4C=CC=[N+]4[B-](F)(F)n4cccc43)C2)C1 [Compound 1]
inhibition at 10 µM (GSK3beta (h)): 3.2%
Inhibition HIV-1 protease (HIV-1 protease): 10,30%
inhibition at 10 µM (CDK2 (h) (cycA)): 7.8%
inhibition at 10 µM (D2S (h)): 5.9%
inhibition at 10 µM (CB1 (h)): 4.4%
inhibition at 10 µM (H1 (h)): 30.4%
inhibition at 10 µM (AT1 (h)): -4.3%
inhibition at 10 µM (5-HT2A (h)): -13.2%
inhibition at 10 µM (5-HT2B (h)): 28.3%
inhibition at 10 µM (5-HT3 (h)): 7.4%
Inhibition BZD (central) (agonist radioligand) (BZD (central)): -11,90%
inhibition at 10 µM (CCK1 (CCKA) (h)): -3.8%
inhibition at 10 µM (kappa (h) (KOP)): 7.8%
Inhibition N muscle-type (h) (antagonist radioligand) (N muscle-type (h)): -11,30%

O=C(OC(C(F)(F)F)C(F)(F)F)N1CC2(CC(CC3=C4C=CC=[N+]4[B-](F)(F)n4cccc43)C2)C1 [Compound 2]
inhibition at 10 µM (MMP-9 (h)): 4.5%
inhibition at 10 µM (GSK3beta (h)): -1.7%
Inhibition HIV-1 protease (HIV-1 protease): -1,90%
inhibition at 10 µM (CDK2 (h) (cycA)): 6.3%
inhibition at 10 µM (D2S (h)): -4.1%
inhibition at 10 µM (CB1 (h)): -16.1%
inhibition at 10 µM (H1 (h)): 5.5%
inhibition at 10 µM (AT1 (h)): -1.2%
inhibition at 10 µM (5-HT2A (h)): -36.2%
inhibition at 10 µM (5-HT2B (h)): 4.1%
inhibition at 10 µM (5-HT3 (h)): -5.6%
Inhibition BZD (central) (agonist radioligand) (BZD (central)): -27,70%
inhibition at 10 µM (CCK1 (CCKA) (h)): -8.8%
inhibition at 10 µM (kappa (h) (KOP)): 5.9%
Inhibition N muscle-type (h) (antagonist radioligand) (N muscle-type (h)): -0,30%

O=C(OC(C(F)(F)F)C(F)(F)F)N1CC2(CC(CC3=C4C=CC(c5ccc[nH]5)=[N+]4[B-](F)(F)n4cccc43)C2)C1 [Compound 2a]
inhibition at 10 µM (MMP-9 (h)): 9.7%
inhibition at 10 µM (GSK3beta (h)): -1.5%
Inhibition HIV-1 protease (HIV-1 protease): 8,30%
inhibition at 10 µM (CDK2 (h) (cycA)): -5.8%
inhibition at 10 µM (D2S (h)): -2.6%
inhibition at 10 µM (CB1 (h)): 6.3%
inhibition at 10 µM (H1 (h)): 4.4%
inhibition at 10 µM (AT1 (h)): 2.5%
inhibition at 10 µM (5-HT2A (h)): -6.8%
inhibition at 10 µM (5-HT2B (h)): 20.8%
inhibition at 10 µM (5-HT3 (h)): 4.7%
Inhibition BZD (central) (agonist radioligand) (BZD (central)): 0,90%
inhibition at 10 µM (CCK1 (CCKA) (h)): 11.9%
inhibition at 10 µM (kappa (h) (KOP)): 4.9%
Inhibition N muscle-type (h) (antagonist radioligand) (N muscle-type (h)): -9,40%

O=C1CO[C@H]2CCN(C(=O)N3CC4(CC(CC5=C6C=CC(c7ccc[nH]7)=[N+]6[B-](F)(F)n6cccc65)C4)C3)C[C@H]2N1 [Compound 4a]
inhibition at 10 µM (MMP-9 (h)): 47%
inhibition at 10 µM (GSK3beta (h)): -15%
Inhibition HIV-1 protease (HIV-1 protease): 23,80%
inhibition at 10 µM (CDK2 (h) (cycA)): -8.3%
inhibition at 10 µM (D2S (h)): 3.3%
inhibition at 10 µM (CB1 (h)): -2.7%
inhibition at 10 µM (H1 (h)): 1.3%
inhibition at 10 µM (AT1 (h)): -12.5%
inhibition at 10 µM (5-HT2A (h)): 18.5%
inhibition at 10 µM (5-HT2B (h)): 30.3%
inhibition at 10 µM (5-HT3 (h)): 1.1%
Inhibition BZD (central) (agonist radioligand) (BZD (central)): -4,10%
inhibition at 10 µM (CCK1 (CCKA) (h)): -22.1%
inhibition at 10 µM (kappa (h) (KOP)): 22.7%
Inhibition N muscle-type (h) (antagonist radioligand) (N muscle-type (h)): -1,70%

O=C(N1CC2(CC(CC3=C4C=CC=[N+]4[B-](F)(F)n4cccc43)C2)C1)N1CC2(CC(n3cnc(C4CC4)n3)C2)C1 [Compound 5]
inhibition at 10 µM (MMP-9 (h)): 16.8%
inhibition at 10 µM (GSK3beta (h)): -1.2%
Inhibition HIV-1 protease (HIV-1 protease): 5,20%
inhibition at 10 µM (CDK2 (h) (cycA)): 6.5%
inhibition at 10 µM (D2S (h)): 12.6%
inhibition at 10 µM (CB1 (h)): 9.9%
inhibition at 10 µM (H1 (h)): 51.5%
inhibition at 10 µM (AT1 (h)): 11.1%
inhibition at 10 µM (5-HT2A (h)): -9.2%
inhibition at 10 µM (5-HT2B (h)): 0.1%
inhibition at 10 µM (5-HT3 (h)): 1.4%
Inhibition BZD (central) (agonist radioligand) (BZD (central)): -16,30%
inhibition at 10 µM (CCK1 (CCKA) (h)): -24.7%
inhibition at 10 µM (kappa (h) (KOP)): 10.3%
Inhibition N muscle-type (h) (antagonist radioligand) (N muscle-type (h)): 17,00%
